By Cmax is commonly meant the peak of the concentration-time curve.

Series [1] can be described thus: Comparative bioavailability study of guanfacine in monkeys given guanfacine or guanfacine prodrug. The following applies: for Prodrug Cmax: monkeys, 0.5 mg/kg guanfacine free base equivalents. Format: in vivo, monkey. How it is done: Blood samples were taken at various times after administration and submitted to analysis for the parent drug and prodrug using a qualified LC-MS-MS assay. The following pharmacokinetic parameters derived from the plasma analytical data were determined using Win Nonlin;

Series [2] is described as follows: Stability studies on guanfacine prodrugs in buffers. The series is classed as physicochemical.
Setting [3] is: DMSO, organic solvent or mixture, Solubility, in DMSO.
Setting [4] is: water/CH3CN (1:1), aqueous with cosolvent or surfactant or cyclodextrin, Solubility, in water/CH3CN (1:1).
Setting [5] is: pH 1.2, 37° C., 0.1M HCl/NaCl buffer, 1 h.
[6] abbreviates: pH 1.2, 37° C., 0.1M HCl/NaCl buffer, time 0.
Setting [7] is: pH 3.0, 20° C., 0.1M citrate buffer, 2 h.
The mark [8] stands for this setting: pH 3.0, 20° C., 0.1M citrate buffer, time 0.
Setting [9] is: pH 6.8, 37° C., 0.1M phosphate buffer, 2 h.
Where [10] appears, read: pH 6.8, 37° C., 0.1M phosphate buffer, time 0.
Setting [11] is: pH 7.4, 37° C., 0.1M phosphate buffer, 2 h.
Setting [12] is: pH 7.4, 37° C., 0.1M phosphate buffer, time 0.
[13] abbreviates: pH 1.2, 37° C., 0.1M HCl/NaCl buffer, 1 h, Hydrochloride.
Where [14] appears, read: pH 3.0, 20° C., 0.1M citrate buffer, 2 h, Hydrochloride.
[15] abbreviates: pH 6.8, 37° C., 0.1M phosphate buffer, 2 h, Hydrochloride.
[16] abbreviates: pH 7.4, 37° C., 0.1M phosphate buffer, 2 h, Hydrochloride.
The mark [17] stands for this setting: pH 1.2, 37° C., 0.1M HCl/NaCl buffer, time 0, Hydrochloride.

Each structure is given as a SMILES string. “And” between values parts separate entries of the source, which are not always exact repeats. Equal entries are not always repeated.

For `CCCOC(=O)NC(N)=NC(=O)Cc1c(Cl)cccc1Cl.Cl` [Compound 4, 1-{N′-[2-(2,6-Dichloro-phenyl)acetyl]-guanidinocarbonyloxy}propane Hydrochloride], the “Prodrug Cmax” value in series [1] is listed as “BLQ”. The solubility was over 10000 µg/mL in “Solubility” (setting [3]); under 1000 µg/mL in the series “Solubility” (water, Solubility, in water); over 1000 µg/mL in “Solubility” (setting [4]). Moreover, the Active drug in series [2] (setting [5]), in series [2] (setting [6]), in series [2] (setting [7]), in series [2] (setting [8]), in series [2] (setting [9]) and in series [2] (setting [10]) was 0.0 throughout. Besides, the Active drug in series [2] (setting [11]) and in series [2] (setting [12]) was 0.0 in each case. The Pro-drug is 94.4 and 94.6 in series [2] (pH 1.2, 37° C., 0.1M HCl/NaCl buffer, 1 h, listed as Guanfacine N-Propyl Carbamate Hydrochloride, Hydrochloride); 100 in series [2] (setting [6]); 94.0 and 94.4 in series [2] (pH 3.0, 20° C., 0.1M citrate buffer, 2 h, listed as Guanfacine N-Propyl Carbamate Hydrochloride, Hydrochloride); 100 in series [2] (setting [8]); 95.8 and 96.4 in series [2] (pH 6.8, 37° C., 0.1M phosphate buffer, 2 h, listed as Guanfacine N-Propyl Carbamate Hydrochloride, Hydrochloride); 100 in series [2] (setting [10]). In addition, the Pro-drug in series [2] (pH 7.4, 37° C., 0.1M phosphate buffer, 2 h, listed as Guanfacine N-Propyl Carbamate Hydrochloride, Hydrochloride) is 96.3 and 96.0; in series [2] (setting [12]), 100.
With `CC(C)OC(=O)NC(N)=NC(=O)Cc1c(Cl)cccc1Cl.Cl` [Compound 5, 2-{N′-[2-(2,6-Dichloro-phenyl)acetyl]-guanidinocarbonyloxy}propane Hydrochloride], in series [1], the “Prodrug Cmax” value is “BLQ”. The solubility is over 833 µg/mL in “Solubility” (3.0 mL CH3CN/3.0 mL H2O, aqueous with cosolvent or surfactant or cyclodextrin, Solubility, in 3.0 mL CH3CN/3.0 mL H2O); over 10000 µg/mL in “Solubility” (setting [3]); under 1000 µg/mL in the series “Solubility” (water, Solubility, in water).
As to `CCCCOC(=O)NC(N)=NC(=O)Cc1c(Cl)cccc1Cl.Cl` [Compound 6, 1-{N′-[2-(2,6-Dichloro-phenyl)-acetyl]-guanidinocarbonyloxy}butane Hydrochloride], the “Prodrug Cmax” value in series [1] is “BLQ”. In addition, the solubility is over 10000 µg/mL in “Solubility” (setting [3]); under 1000 µg/mL in “Solubility” (water, Solubility, in water); over 1000 µg/mL in “Solubility” (setting [4]). The Active drug in series [2] (setting [5]), in series [2] (setting [6]), in series [2] (setting [7]), in series [2] (setting [8]), in series [2] (setting [9]) and in series [2] (setting [10]) was 0.0 in each case. Moreover, the Active drug in series [2] (setting [11]) and in series [2] (setting [12]) was 0.0 in each case. The Pro-drug in series [2] (setting [5]) is 94.0; in series [2] (setting [6]) it was 100; in series [2] (pH 3.0, 20° C., 0.1M citrate buffer, 2 h, listed as Guanfacine N-Butyl Carbamate Hydrochloride, Hydrochloride), 94.6 and 94.9; in series [2] (setting [8]), 100; in series [2] (pH 6.8, 37° C., 0.1M phosphate buffer, 2 h, listed as Guanfacine N-Butyl Carbamate Hydrochloride, Hydrochloride), 90.9 and 90.7; in series [2] (setting [10]), 100. The Pro-drug in series [2] (pH 7.4, 37° C., 0.1M phosphate buffer, 2 h, listed as Guanfacine N-Butyl Carbamate Hydrochloride, Hydrochloride) is 90.7 and 91.0; in series [2] (setting [12]) it was 100.
On to `NC(=NC(=O)Cc1c(Cl)cccc1Cl)NC(=O)OCCCO` [Compound 22, 3-{N′-[2-(2,6-Dichloro-phenyl)-acetyl]-guanidinocarbonyloxy}propan-1-ol], for which the Cmax in series [1] (monkey, plasma, po, 0.5 mg/kg) amounted to 3.49 ng/mL. The solubility in “Solubility” (setting [3]) was over 10000 µg/mL; in “Solubility” (water, Solubility, in water), under 1000 µg/mL; in the series “Solubility” (setting [4]), over 10000 µg/mL. Moreover, the Active drug in series [2] (setting [5]), in series [2] (setting [6]), in series [2] (setting [7]), in series [2] (setting [8]), in series [2] (setting [9]) and in series [2] (setting [10]) was 0.0 each time. For the same compound, the Active drug in series [2] (setting [11]) and in series [2] (setting [12]) was 0.0 throughout. Besides, the Pro-drug in series [2] (pH 1.2, 37° C., 0.1M HCl/NaCl buffer, 1 h, listed as Guanfacine (3-Hydroxypropyl) Carbamate) is 94.8 and 94.9; in series [2] (setting [6]), 100; in series [2] (pH 3.0, 20° C., 0.1M citrate buffer, 2 h, listed as Guanfacine (3-Hydroxypropyl) Carbamate), 98.1 and 98.3; in series [2] (setting [8]) it was 100; in series [2] (pH 6.8, 37° C., 0.1M phosphate buffer, 2 h, listed as Guanfacine (3-Hydroxypropyl) Carbamate), 99.2 and 99.7; in series [2] (setting [10]), 100. Besides, the Pro-drug came to 98.2 in series [2] (setting [11]) and 100 in series [2] (setting [12]).
On to `CCSC(=O)NC(N)=NC(=O)Cc1c(Cl)cccc1Cl.Cl` [Compound 30, Guanfacine Ethanethiol Carbamate Hydrochloride], for which the “Prodrug Cmax” value in series [1] is on record as “BLQ”. The solubility was over 10000 µg/mL in “Solubility” (in DMSO), under 1000 µg/mL in the series “Solubility” (in water) and over 5000 µg/mL in “Solubility” (in water/CH3CN (1:2)). Further, the Active drug was 10.1 and 11.0 in series [2] (setting [13]); 0.0 in series [2] (setting [6]); 0.0 in series [2] (setting [7]); 0.0 in series [2] (setting [8]); 0.0 in series [2] (setting [9]); 0.0 in series [2] (setting [10]). In addition, the Active drug in series [2] (setting [11]) and in series [2] (setting [12]) was 0.0 in each case. Also, the Pro-drug in series [2] (setting [13]) was 81.0 and 80.4; in series [2] (setting [6]), 100; in series [2] (setting [14]), 85.6 and 84.8; in series [2] (setting [8]), 100; in series [2] (setting [15]), 93.0 and 92.5; in series [2] (setting [10]) it was 100. The Pro-drug was 94.5 and 95.2 in series [2] (setting [16]); 100 in series [2] (setting [12]).
In the case of `CC(C)(C)OC(=O)NC(=N)NC(=O)Cc1c(Cl)cccc1Cl.Cl` [Guanfacine Tert-Butyl Carbamate Hydrochloride], the solubility in the series “Solubility” (in 2 mL CH3CN/1 mL H2O) is over 5 mg; in the series “Solubility” (in DMSO) it was over 10000 µg/mL; in the series “Solubility” (in water) it was under 1000 µg/mL. Further, the Pro-drug in series [2] (setting [5]) was 0.0; in series [2] (setting [17]), 91.2 and 90.5; in series [2] (setting [7]) it was 34.5; in series [2] (setting [8]) it was 100; in series [2] (setting [15]), 83.6 and 84.9; in series [2] (setting [10]), 100. Also, the Pro-drug in series [2] (setting [16]) is 84.2 and 82.7; in series [2] (setting [12]), 100. Moreover, the Active drug in series [2] (setting [13]) was 99.7 and 100; in series [2] (setting [17]) it was 8.8 and 9.5; in series [2] (setting [14]), 66.6 and 65.5; in series [2] (setting [8]) it was 0.0; in series [2] (setting [15]), 14.2 and 15.2; in series [2] (setting [10]), 0.0. The Active drug in series [2] (setting [16]) is 11.0 and 11.2; in series [2] (setting [12]), 0.0.
As for `N=C(NC(=O)Cc1c(Cl)cccc1Cl)NC(=O)OC[C@@H](N)Cc1cnc[nH]1.O=C(O)C(F)(F)F.O=C(O)C(F)(F)F.O=C(O)C(F)(F)F` [Guanfacine-(S)-histidinyl carbamate Tri-trifluoroacetate], the solubility in “Solubility” (in DMSO) and in the series “Solubility” (in water) was over 20000 µg/mL in each case. Moreover, the Active drug in series [2] (setting [5]) was 1.7 and 1.8; in series [2] (setting [6]) it was 0.5 and 0.6; in series [2] (setting [7]), 1.2 and 1.3; in series [2] (setting [8]), 0.4 and 0.5; in series [2] (setting [9]), 87.1 and 88.1; in series [2] (setting [10]), 1.6 and 1.4. The Active drug in series [2] (setting [11]) was 85.4 and 85.8. Further, the Pro-drug in series [2] (setting [5]) was 84.7 and 83.3; in series [2] (setting [6]) it was 99.5 and 99.4; in series [2] (setting [7]) it was 98.1 and 97.8; in series [2] (setting [8]), 99.6 and 99.5; in series [2] (setting [9]), 0.0; in series [2] (setting [10]) it was 98.4 and 98.6. Moreover, the Pro-drug in series [2] (setting [11]) was 0.0; in series [2] (setting [12]), 99.2 and 98.1.

Values taken from patent US20120065152A1 (SHIRE LLC, priority 2010, published 2012).
